How the values were obtained:
MRC-5 cells = assay: Lifespan (population doublings) of MRC-5 cells in culture; format: cell-based, human
Experimental: Cultures were split in a 1:4 ratio when flasks were approximately 70-80% confluent.
(§1) MRC -5 cells (fetal lung fibroblasts) were grown in Dulbecco's modification of Eagles' minimum essential medium (DMEM Gibco BRL Cat. No. 12800-017) containing 0.45% glucose, or MEM (Gibco BRL Cat. No. 612800-017) containing 0.1% glucose. Both media contained 10% fetal calf scrum (TRACE Biosciences Cat. No. 15-010-0500V) and Penicillin/Streptomycin 5000 IU, 5000 μg/ml (TRACE Biosciences Cat. No. 21-140-0100V). Cells were grown in […] flasks or in dishes (35 mm or 60 mm, Nunc) at 37° C. with 5% CO2. Cells were harvested with trypsin (TRACE Biosciences Cat. No. 21-163-0100V) and counted with a model ZF6 Coulter Counter. Cells were split in ratios of 1:2 or 1:4. Population doublings (PDs) were calculated from the ratio of the initial number of cells plated to the yield of cells after a period of time. This provides an accurate measure of cell growth, with the split ratios 1:2 and 1:4 corresponding to one and two passages respectively, which are broadly equivalent to population doublings. The media was changed every 5 days or when cells became confluent.
MRC-5 cells were used to observe the toxicity of a series of derivatives of carnosine on cell growth. Cell cultures were grown in DMEM media with 10% fetal calf serum and supplemented with the following carnosine analogues: carnosine ethyl ester, carnosine iso-propyl ester, carnosine n-butyl ester, carnosine n-hexyl ester, N-propyl carnosine, N-hexanoyl carnosine, N-trimethyl acetyl carnosine, N-acetyl carnosine methyl ester, N-acetyl carnosine ethyl ester and N-acetyl carnosine, at concentrations ranging between 1 mM to 20 mM. Cells were also grown in DMEM supplemented with carnosine at 20 mM. […] Even at lower concentrations cell morphology was that of cells that have reached senescence i.e. broad flat cells with long process reaching out to other cells. Cell numbers were less than in the control flasks. […] As shown in FIG. 1 Acetyl-carnosine achieved a lifespan 5 PDs greater than the control and 6.7 PDs greater than carnosine over a 43 day period. […] In the early phase of the experiment growth rates were markedly greater than with the other compounds (FIG. 1).
In fact all populations of MRC-5 cells grown in DMEM supplemented with acetyl-carnosine preserved a younger phenotype for much longer than cells grown in DMEM supplemented with carnosine or its analogues.
Under control conditions the range was 57.3-64.5 PDs (n=5). With the addition of carnosine (20mM) to the medium the range was 61.8-63.7 PDs (n=5) with an average increase of 1.4 PDs which represents a 3 fold increase in cell number. However, when acetyl-carnosine (5 mM) was added to the medium, the range was 62.3-70.3 PDs (n=5) with an average increase of 5 PDs compared with the controls. This represents a 32 fold increase in cell number.

senescent MRC-5 cells = assay: Rejuvenation of senescent MRC-5 cells (morphology); format: cell-based, human; details: media supplemented with the compound, FIG. 4
Experimental: as §1
It was shown above that acetyl-carnosine markedly delayed the onset of senescence by increasing the lifespan of MRC-5 cells in culture. This was confirmed by rejuvenation experiments (FIG. 4). The morphology of cells grown in media supplemented with acetyl-carnosine was distinct from the controls. […]

CC(=O)NCCC(=O)N[C@@H](Cc1cnc[nH]1)C(=O)O [N-acetyl carnosine]
Range of lifespans of populations of MRC-5 cells (MRC-5 cells; 5 mM in medium, n=5): 62.3-70.3 PDs
Lifespan greater than carnosine (MRC-5 cells; 5 mM vs carnosine 20 mM, passage 55 cells, over a 43 day period): 6.7 PDs
Lifespan of MRC-5 cells in culture, Population Doublings (PD) (MRC-5 cells; 5 mM, commenced at passage 55): 15.2 PD
Average increase in lifespan compared with controls (MRC-5 cells; 5 mM, n=5): 5 PDs
Lifespan greater than the control (MRC-5 cells; 5 mM, passage 55 cells, over a 43 day period): 5 PDs
Increase in cell number (MRC-5 cells; 5 mM, worked out from the PD increase): 32 fold
Lifespan of MRC-5 cells compared with carnosine (FIG. 2) (MRC-5 cells; acetyl-carnosine 5 mM vs carnosine 20 mM, commenced at passage 32): markedly increased the lifespan
Increase in cell mass (MRC-5 cells; cells exposed to supplemented media): 32 fold
Morphology of cells in rejuvenation experiment (senescent MRC-5 cells): phenotype typical of younger cells

Source: patent publication US20040014814A1, “Compositions and methods for delaying preventing rejuvenating or reversing senescence in cells” (priority 2000, published 2004)
